{"source": "paper PMC5428521", "about": "“Identification of a Novel, Small Molecule Partial Agonist for the Cyclic AMP Sensor, EPAC1” (Scientific Reports, 2017)", "key": {"GST": {"biological_target": "GST (Schistosoma japonicum, UniProt P08515)", "sequence (P08515 whole entry)": "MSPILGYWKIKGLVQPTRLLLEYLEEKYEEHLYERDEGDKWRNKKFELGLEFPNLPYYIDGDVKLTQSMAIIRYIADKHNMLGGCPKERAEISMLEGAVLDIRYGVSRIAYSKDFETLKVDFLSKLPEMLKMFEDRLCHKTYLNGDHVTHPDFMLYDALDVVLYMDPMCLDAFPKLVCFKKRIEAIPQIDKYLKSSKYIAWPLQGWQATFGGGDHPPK", "experiment": "Ligand observed NMR (1D and waterLOGSY) with GST alone", "format": "binding", "settings": "compound 50 µM, GST 2.5 µM", "from_the_text": "(§1) Given that I942 seems to exert selective agonist properties against EPAC1, but not EPAC2, we next sought to validate whether our isolated ligands can interact with EPAC1 and EPAC2. Ligand observed nuclear magnetic resonance (NMR) is a valuable tool for the identification and validation of small molecule ligands. We therefore used one dimensional proton (1D) and water-ligand observed by gradient spectroscopy (waterLOGSY) NMR to confirm the ability of I942 and I178 to bind to the purified CNBs of EPAC1 and EPAC2, in comparison with the commercially available EPAC1 antagonist, ESI-09[32]. In order to assess ligand/CNB interaction, 1D and waterLOGSY experiments were performed on each compound (50 µM) in the presence or absence of 2.5 µM EPAC-CNB. In the absence of protein, each test compound produced a well-resolved 1D spectrum and a region of each spectrum was chosen to display distinctive spectral peaks originating from the ligand (Fig. 6). In the absence of protein, the corresponding waterLOGSY peaks were small, or absent, due to the negligible signal produced by saturation transfer from water to the freely tumbling small molecule. […] In waterLOGSY spectra, protein-mediated saturation transfer can only occur if the protein-ligand complex has a substantial lifetime. […]\n(§2) (A) One dimensional proton (1D) and waterLOGSY (WL) spectra were performed on samples containing hit compound I942 (50 µM) in the absence and presence of EPAC1-CNB, EPAC2-CNB or GST alone, as indicated (2.5 µM). […] Interaction between compound and protein was assessed through comparison of the compound alone and protein-compound sample spectra. […]\n(§3) All NMR spectra were recorded on a Bruker AVANCE IIIHD 600 spectrometer equipped with a TCI cryoprobe at 285 K. Test compounds were prepared in deuterated DMSO and diluted to given experimental concentrations in NMR buffer (20 mM Na2PO4, pH 7.0, 50 mM NaCl, 0.1% (w/v) NaN3, 5% (v/v) D2O) with a final DMSO concentration below 0.1%. […] One dimensional proton (1D) and waterLOGSY spectra were recorded for all compounds tested, using pulse sequences as previously described. […]"}, "EPAC2-CNB": {"biological_target": "T1, EPAC2-CNB (Mus musculus, UniProt Q9EQZ6)", "T1 construct": "EPAC2-CNB (amino acids 304–453 of EPAC2); made in house; host or cells: BL-21 Escherichia coli (pGEX-6P-1)", "T1 sequence (Q9EQZ6 304-453 isoform Q9EQZ6-3)": "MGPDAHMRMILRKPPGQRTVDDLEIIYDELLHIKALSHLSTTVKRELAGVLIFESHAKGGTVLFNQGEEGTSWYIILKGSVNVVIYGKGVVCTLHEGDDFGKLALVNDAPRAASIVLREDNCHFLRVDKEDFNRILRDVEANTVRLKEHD", "experiment": "Ligand observed NMR (1D and waterLOGSY) with EPAC2-CNB", "format": "binding", "settings": "compound 50 µM, protein 2.5 µM", "from_the_text": "as §1, §2, §3"}, "[1]": {"biological_target": "T2, EPAC2 (amino acids 280–993) (Mus musculus, UniProt Q9EQZ6)", "T2 construct": "EPAC2 (amino acids 280–993); made in house; host or cells: bacteria", "T2 sequence (Q9EQZ6 280-993 isoform Q9EQZ6-3)": "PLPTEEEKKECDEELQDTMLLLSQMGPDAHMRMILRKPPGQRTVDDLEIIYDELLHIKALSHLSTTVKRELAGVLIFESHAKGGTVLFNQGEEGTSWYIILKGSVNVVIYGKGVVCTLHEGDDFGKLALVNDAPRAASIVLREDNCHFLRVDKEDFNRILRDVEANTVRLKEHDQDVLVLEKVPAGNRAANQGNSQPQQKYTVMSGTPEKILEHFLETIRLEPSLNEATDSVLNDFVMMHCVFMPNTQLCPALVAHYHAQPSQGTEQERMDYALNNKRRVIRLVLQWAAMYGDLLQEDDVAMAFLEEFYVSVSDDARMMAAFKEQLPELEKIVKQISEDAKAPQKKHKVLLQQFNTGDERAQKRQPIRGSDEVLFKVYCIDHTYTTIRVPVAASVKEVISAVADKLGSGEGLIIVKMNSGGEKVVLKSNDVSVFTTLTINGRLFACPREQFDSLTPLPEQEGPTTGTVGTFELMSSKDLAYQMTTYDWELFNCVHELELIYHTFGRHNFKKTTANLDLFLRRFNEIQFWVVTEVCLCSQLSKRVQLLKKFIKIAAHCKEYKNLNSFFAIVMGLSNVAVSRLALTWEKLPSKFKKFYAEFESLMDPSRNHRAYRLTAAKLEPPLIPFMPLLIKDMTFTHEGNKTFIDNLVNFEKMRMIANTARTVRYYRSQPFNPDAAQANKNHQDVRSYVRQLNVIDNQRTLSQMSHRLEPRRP", "experiment": "In vitro GEF activity assay (MANT-GDP dissociation from Rap1), EPAC2", "format": "biochemical", "settings": "for IC50: IC50, GEF Inhibition (with cAMP), 50 μM cAMP; for GEF Activation (no cAMP), AC50 / induced EPAC2 activity: absence of cAMP, N/A = inability to promote GEF activity of EPAC2", "experimental": "EPAC1 and EPAC2 in vitro GEF activities were calculated as previously described. Briefly, recombinant EPAC1 (amino acids 149–881) or EPAC2 (amino acids 280–993) were incubated at 100 nM with recombinant Rap1 (200 nM) preloaded with the fluorescent GDP analogue 2′/3′-O-(N-Methylanthraniloyl)guanosine 5-diphosphate (MANT-GDP) in the presence of 20 μM GDP and then the fluorescence intensity was measured at 360/450 nm (ex/em) over time. […] AC50 or IC50 values were determined from the plots of kobs against the concentration of the agonist and antagonist, respectively Table 1."}}, "note": "Several values for one entry are separate records, joined by “and”; a condition that tells them apart may be missing. Equal values may be shown once.", "data": [{"smiles": "O=C(COc1ccc2ccccc2c1)NS(=O)(=O)c1ccccc1", "note": "[I178, N-(benzenesulfonyl)-2-(naphthalen-2-yloxy)acetamide]", "values": [{"measurement": "NMR interaction with GST alone", "setting": "GST", "result": "No peak broadening"}, {"measurement": "NMR interaction", "setting": "EPAC2-CNB", "result": "Weak, specific interaction"}, {"measurement": "IC50", "setting": "[1]", "result": "250 µM and ~250 µM"}, {"measurement": "GEF Activation (no cAMP), AC50 / induced EPAC2 activity", "setting": "[1]", "result": "very weak"}]}, {"smiles": "Cc1ccc(S(=O)(=O)NC(=O)COc2ccc3ccccc3c2)c(C)c1", "note": "[I942, N-(2,4-dimethylbenzenesulfonyl)-2-(naphthalen-2-yloxy)acetamide]", "values": [{"measurement": "NMR interaction with GST alone", "setting": "GST", "result": "No peak broadening"}, {"measurement": "NMR interaction", "setting": "EPAC2-CNB", "result": "Strong, Specific Interaction"}, {"measurement": "IC50", "setting": "[1]", "result": "110 µM and ~110 µM"}, {"measurement": "GEF Activation (no cAMP), AC50 / induced EPAC2 activity", "setting": "[1]", "result": "very weak"}, {"measurement": "Kd", "setting": "[1]; read-out: affinity for EPAC2 280–993, approximated", "result": "~5", "unit": "µM"}]}]}
